Data as given in PubChem BioAssay AID1845199 (Molecular Pharmacology Branch, DTP, NCI, 2023).

System: 556581-035-R-J1 tumor spheroid viability, % test/control
Experiment: Anticancer human tumor 556581-035-R-J1 patient-derived ovarian carcinoma cell line growth inhibition
Conditions: spheroids with HUVEC and MSC; for IC50: curve of first compound; for viability, T/C: stronger effect = lower value
Summary of the method: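 Complex spheroids of malignant cells with endothelial cells and mesenchymal stem cells; agents alone or combined, from near clinical Cmax (or 10 microM if unknown) down in half-log steps, 0.25% DMSO final.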
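Further: spheroids exposed to compounds for 7 days before viability read.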

**Q.** For `COc1cc(C)[nH]c(=O)c1CN1CCc2c(Cl)cc(C(OC)C3COC3)c(Cl)c2C1=O` (stereo not given) + Cn1nnc2c(C(N)=O)ncn2c1=O, which IC50 (second compound 1 µM) is on record?
**A.** Its IC50 is over 10 µM.

**Q.** And the IC50 (second compound 3.16 µM)?
**A.** The IC50 was over 10 µM.

**Q.** What about the IC50 (second compound 10 µM) of the same compound?
**A.** The IC50 was over 10 µM.

**Q.** What about the IC50 (second compound 31.6 µM) of the same compound?
**A.** Its IC50 is over 10 µM.

**Q.** What about the IC50 (second compound 100 µM) of the same compound?
**A.** Its IC50 is over 10 µM.

**Q.** What about the viability, T/C (second compound 1 µM, first compound 0.0316 µM) of the same compound?
**A.** Its viability, T/C is 105%.

**Q.** What about the viability, T/C (second compound 1 µM, first compound 0.1 µM) of the same compound?
**A.** Its viability, T/C is 102%.

**Q.** What about the viability, T/C (second compound 1 µM, first compound 0.316 µM) of the same compound?
**A.** Its viability, T/C is 117%.

**Q.** What about the viability, T/C (second compound 1 µM, first compound 1 µM) of the same compound?
**A.** The viability, T/C was 109%.

**Q.** And the viability, T/C (second compound 1 µM, first compound 3.16 µM)?
**A.** Its viability, T/C is 107%.

**Q.** And the viability, T/C (second compound 1 µM, first compound 10 µM)?
**A.** Its viability, T/C is 102%.

**Q.** What about the viability, T/C (second compound 3.16 µM, first compound 0.0316 µM) of the same compound?
**A.** Its viability, T/C is 99.3%.

**Q.** And the viability, T/C (second compound 3.16 µM, first compound 0.1 µM)?
**A.** The viability, T/C was 113%.

**Q.** What about the viability, T/C (second compound 3.16 µM, first compound 0.316 µM) of the same compound?
**A.** Its viability, T/C is 100%.

**Q.** And the viability, T/C (second compound 3.16 µM, first compound 1 µM)?
**A.** Its viability, T/C is 107%.

**Q.** And the viability, T/C (second compound 3.16 µM, first compound 3.16 µM)?
**A.** The viability, T/C was 105%.

**Q.** And the viability, T/C (second compound 3.16 µM, first compound 10 µM)?
**A.** The viability, T/C was 105%.

**Q.** What about the viability, T/C (second compound 10 µM, first compound 0.0316 µM) of the same compound?
**A.** Its viability, T/C is 105%.

**Q.** And the viability, T/C (second compound 10 µM, first compound 0.1 µM)?
**A.** The viability, T/C was 106%.

**Q.** What about the viability, T/C (second compound 10 µM, first compound 0.316 µM) of the same compound?
**A.** Its viability, T/C is 106%.

**Q.** And the viability, T/C (second compound 10 µM, first compound 1 µM)?
**A.** The viability, T/C was 112%.

**Q.** And the viability, T/C (second compound 10 µM, first compound 3.16 µM)?
**A.** Its viability, T/C is 111%.

**Q.** What about the viability, T/C (second compound 10 µM, first compound 10 µM) of the same compound?
**A.** The viability, T/C was 104%.

**Q.** And the viability, T/C (second compound 31.6 µM, first compound 0.0316 µM)?
**A.** Its viability, T/C is 115%.

**Q.** And the viability, T/C (second compound 31.6 µM, first compound 0.1 µM)?
**A.** Its viability, T/C is 118%.

**Q.** And the viability, T/C (second compound 31.6 µM, first compound 0.316 µM)?
**A.** The viability, T/C was 110%.

**Q.** What about the viability, T/C (second compound 31.6 µM, first compound 1 µM) of the same compound?
**A.** Its viability, T/C is 107%.

**Q.** And the viability, T/C (second compound 31.6 µM, first compound 3.16 µM)?
**A.** Its viability, T/C is 108%.

**Q.** What about the viability, T/C (second compound 31.6 µM, first compound 10 µM) of the same compound?
**A.** Its viability, T/C is 108%.

**Q.** And the viability, T/C (second compound 100 µM, first compound 0.0316 µM)?
**A.** Its viability, T/C is 112%.

**Q.** And the viability, T/C (second compound 100 µM, first compound 0.1 µM)?
**A.** Its viability, T/C is 107%.

**Q.** What about the viability, T/C (second compound 100 µM, first compound 0.316 µM) of the same compound?
**A.** The viability, T/C was 106%.

**Q.** What about the viability, T/C (second compound 100 µM, first compound 1 µM) of the same compound?
**A.** The viability, T/C was 115%.

**Q.** And the viability, T/C (second compound 100 µM, first compound 3.16 µM)?
**A.** Its viability, T/C is 114%.

**Q.** And the viability, T/C (second compound 100 µM, first compound 10 µM)?
**A.** The viability, T/C was 103%.
